Results reported in patent US10577362B2, “Substituted 2, 4-diamino-quinoline derivatives for use in the treatment of proliferative diseases” (GENOSCIENCE PHARMA, priority 2016, dated 2020).
pEC50: −log10 of the molar value. Counter-ions that a name gives are not always drawn.

What was measured:
Assay type in all cases: cell-based, human
[1] = tested on: MOLM-14 (acute myeloid leukemia) cell line; assay: CellTiter-Glo luminescent cell viability assay, MOLM-14; settings: Homo sapiens; for viability at 4 µM: MOLM-14, compound at 4 μM; for viability at 4 µM / viability at 10 µM: 72 h; for viability at 10 µM: MOLM-14, compound at 10 μM; for pEC50: MOLM-14 cell line, 72 h incubation, CellTiter-Glo, read-out: EC50, growth inhibition of MOLM-14
Outline: (§1)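 Cells were cultured at 37 °C, 5% CO2 with 10% FBS; adherent lines were plated overnight, suspension MOLM-14 plated 1 h before dosing. Compounds in H2O or DMSO were added at various concentrations for 72 h, and viability was read by luminescence. EC50 is the dose reducing signal to 50% of diluent control.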

[2] = tested on: A375 (malignant melanoma) cell line; assay: CellTiter-Glo luminescent cell viability assay, A375; settings: Homo sapiens, A-375; for viability at 4 µM: A375, compound at 4 μM; for viability at 4 µM / viability at 10 µM: 72 h; for viability at 10 µM: A375, compound at 10 μM; for pEC50: A375 cell line, 72 h incubation, CellTiter-Glo, read-out: EC50, growth inhibition of A375
Outline: (§2)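 72 h compound exposure, 37 °C, 5% CO2, 10% FBS medium; ATP luminescence read after 30 min RT equilibration. Viability as % of H2O/DMSO diluent control; EC50 = dose giving 50% of control signal. Duplicate points minimum.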

[3] = tested on: HCT-116 (colorectal carcinoma) cell line; assay: CellTiter-Glo luminescent cell viability assay, HCT-116; settings: Homo sapiens; for viability at 4 µM: HCT-116, compound at 4 μM; for viability at 4 µM / viability at 10 µM: 72 h; for viability at 10 µM: HCT-116, compound at 10 μM; for pEC50: HCT-116 cell line, 72 h incubation, CellTiter-Glo, read-out: EC50, growth inhibition of HCT-116
Outline: as §2

[4] = tested on: Huh7 (hepatocellular carcinoma) cell line; assay: CellTiter-Glo luminescent cell viability assay, Huh7; settings: Homo sapiens, Huh-7; for viability at 4 µM: Huh7, compound at 4 μM; for viability at 4 µM / viability at 10 µM: 72 h; for viability at 10 µM: Huh7, compound at 10 μM; for pEC50: Huh7 cell line, 72 h incubation, CellTiter-Glo, read-out: EC50, growth inhibition of Huh7
Outline: as §1

[5] = tested on: 786-O (renal adenocarcinoma) cell line; assay: CellTiter-Glo luminescent cell viability assay, 786-O; settings: Homo sapiens, 786-0; for viability at 4 µM / viability at 10 µM: 786-O, 72 h; for viability at 4 µM: compound at 4 μM; for viability at 10 µM: compound at 10 μM; for pEC50: 786-O cell line, 72 h incubation, CellTiter-Glo, read-out: EC50, growth inhibition of 786-O
Outline: as §2

[6] = tested on: HepG2 (hepatocellular carcinoma) cell line; assay: CellTiter-Glo luminescent cell viability assay, HepG2; settings: Homo sapiens; for viability at 4 µM / viability at 10 µM: HepG2, HepG, 72 h; for viability at 4 µM: compound at 4 μM; for viability at 10 µM: compound at 10 μM; for pEC50: HepG2 cell line, 72 h incubation, CellTiter-Glo, read-out: EC50, growth inhibition of HepG2
Outline: as §1

pEC50 [1]	pEC50 [2]	pEC50 [3]	pEC50 [4]	pEC50 [5]	pEC50 [6]	Structure (SMILES)	viability at 4 µM [1] [%]	viability at 10 µM [1] [%]	viability at 4 µM [2] [%]	viability at 10 µM [2] [%]	viability at 4 µM [3] [%]	viability at 10 µM [3] [%]	viability at 4 µM [4] [%]	viability at 10 µM [4] [%]	viability at 4 µM [5] [%]	viability at 10 µM [5] [%]	viability at 4 µM [6] [%]	viability at 10 µM [6] [%]
–	–	–	–	–	–	Cc1nccnc1OC1CCCN(c2c(C#N)c(NCc3ccc(Cl)cc3)nc3ccccc23)C1 (stereo not drawn) [Compound 3328CN, 2-(4-chlorobenzylamino)-3-cyano-4-{3-[(3-methylpyrazin-2-yl)oxy]piperidin-1-yl}quinoline]	105	95.4	92.7	87.3	93.2	82.3	125	104	93.8	85.5	98.8	90.8
–	–	–	–	–	–	Cc1cc2c(C)nc(Nc3ccc(Nc4nc5ccccc5c(N5CCC(NC(C)(C)C)CC5)c4C#N)cc3C)nc2o1 [Compound 512CN, 2-[3-methyl-4-(4,6-dimethylfuro[2,3-d]pyrimidin-2-ylamino)phenylamino]-3-cyano-4-(4-tert-butylaminopiperidin-1-yl)quinoline]	0.2	0.3	0.3	0.2	0.2	0.2	0.2	0.3	0.2	0.2	0.2	0.2
5.30 to 6.30	5.30 to 6.30	5.30 to 6.30	5.30 to 6.30	5.30 to 6.30	5.30 to 6.30	CN1CCN(C(=O)C2CCN(c3cc(NCc4ccc(Cl)cc4)nc4ccccc34)CC2)CC1 [Compound 1656, 2-(4-chlorobenzylamino)-4-[4-(4-methylpiperazine-1-carbonyl)-piperidin-1-yl]-quinoline hydrochloride]	–	–	–	–	–	–	–	–	–	–	–	–
5.30 to 6.30	5.30 to 6.30	5.30 to 6.30	5.30 to 6.30	5.30 to 6.30	5.30 to 6.30	Cc1c(F)ccc2c(N3CCC(NC(C)(C)C)CC3)cc(NCc3ccc(Cl)cc3)nc12 [Compound 572, 2-(4-chlorobenzylamino)-4-[4-(tert-butylamino)piperidin-1-yl]-7-fluoro-8-methylquinoline]	–	–	–	–	–	–	–	–	–	–	–	–
–	–	–	–	–	–	Cc1cc(Nc2nc3ccccc3c(N3CCC(NC(C)(C)C)CC3)c2C#N)ccc1Nc1nccc(C(F)(F)F)n1 [Compound 534CN, 2-[3-methyl-4-(4-trifluoromethylpyrimidin-2-ylamino)phenylamino]-3-cyano-4-(4-tert-butylaminopiperidin-1-yl)quinoline]	0.4	0.3	0.4	0.2	0.4	0.2	49.1	0.4	2.1	0.2	13	0.2
–	–	–	–	–	–	COc1cc(C)nc(Nc2ccc(Nc3nc4ccccc4c(N4CCC(NC(C)(C)C)CC4)c3C#N)cc2C)n1 [Compound 510CN, 2-[4-(4-methyl-6-methoxypyrimidin-2-ylamino)-3-methylphenylamino]-3-cyano-4-(4-tert-butylaminopiperidin-1-yl)quinoline]	74.5	0.2	57.4	0.1	24.8	0.1	62.6	0.3	2.8	0.1	54.6	0.1
5.30 to 6.30	5.30 to 6.30	5.30 to 6.30	5.30 to 6.30	5.00 to 5.30	5.30 to 6.30	O[C@H]1CCN(c2cc(NCc3ccc(Cl)cc3)nc3ccccc23)C1 [Compound 3060, (3S) 2-(4-chlorobenzylamino)-4-(3-hydroxypyrrolidin-1-yl)-quinoline hydrochloride]	–	–	–	–	–	–	–	–	–	–	–	–
–	–	–	–	–	–	N#Cc1c(NCc2ccc(Cl)cc2)nc2ccccc2c1N1CCC(Oc2ccc(F)cc2)C1 (stereo not drawn) [Compound 3338CN, 2-(4-chlorobenzylamino)-3-cyano-4-[3-(4-fluorophenoxy)pyrrolidin-1-yl]quinoline]	112	107	94.9	93.4	94.3	87.6	96.9	101	93.3	59.4	98.8	92.2
5.30 to 6.30	5.30 to 6.30	5.30 to 6.30	5.30 to 6.30	5.30 to 6.30	5.30 to 6.30	Clc1ccc(CNc2cc(N3CCC(Oc4ccncc4)CC3)c3ccccc3n2)cc1 [Compound 2950, 2-(4-chlorobenzylamino)-4-[4-(pyridin-4-yloxy)piperidin-1-yl]quinoline hydrochloride]	–	–	–	–	–	–	–	–	–	–	–	–
5.00 to 5.30	5.30 to 6.30	5.30 to 6.30	5.00 to 5.30	5.30 to 6.30	5.30 to 6.30	Cc1c(NCc2ccc(Cl)cc2)nc2ccccc2c1N1CCC(NC(C)(C)C)CC1 [Compound 350, 2-(4-chlorobenzylamino)-3-methyl-4-[4-(tert-butylamino)piperidin-1-yl]quinoline]	–	–	–	–	–	–	–	–	–	–	–	–
–	–	–	–	–	–	Cc1c(Nc2cccc(Nc3nccc(C(F)(F)F)n3)c2)nc2ccccc2c1N1CCC(NC(C)(C)C)CC1 [Compound 540Me, 2-[3-(4-trifluoromethylpyrimidin-2-ylamino)phenylamino]-3-methyl-4-(4-tert-butylaminopiperidin-1-yl)quinoline]	63.1	0.3	1.6	0.1	0.4	0.1	63.9	0.2	2.6	0.1	38.3	0.1
5.30 to 6.30	5.00 to 5.30	5.30 to 6.30	5.00 to 5.30	5.00 to 5.30	5.30 to 6.30	CC(C)OC1CCN(c2cc(NCc3ccc(Cl)cc3)nc3ccccc23)CC1 [Compound 2918, 2-(4-chlorobenzylamino)-4-[4-(iso-propoxy)-piperidin-1-yl]-quinoline hydrochloride]	–	–	–	–	–	–	–	–	–	–	–	–
5.00 to 5.30	5.30 to 6.30	5.30 to 6.30	5.00 to 5.30	5.30 to 6.30	5.30 to 6.30	Cc1cc(C)nc(Nc2ccc(Nc3nc4ccccc4c(N4CCC(NC(C)(C)C)CC4)c3C#N)cc2C)n1 [Compound 502CN, 2-[4-(4,6-dimethyl-2-pyrimidinamino)-3-methyl-phenylamino]-3-cyano-4-(4-tert-butylaminopiperidin-1-yl)-quinoline]	–	–	–	–	–	–	–	–	–	–	–	–
5.00 to 5.30	5.30 to 6.30	5.30 to 6.30	5.00 to 5.30	5.00 to 5.30	5.30 to 6.30	CN(Cc1ccc(Cl)cc1)c1cc(N2CCC(NC(C)(C)C)CC2)c2ccccc2n1 [Compound 212, 2-(N-4-chlorobenzyl-N-methylamino)-4-[4-(tert-butylamino)-piperidin-1-yl]-quinoline, Hydrochloride Salt]	–	–	–	–	–	–	–	–	–	–	–	–
–	–	–	–	–	–	Cc1nccnc1OC1CCN(c2c(C#N)c(NCc3ccc(Cl)cc3)nc3ccccc23)CC1 [Compound 2970CN, 2-(4-chlorobenzylamino)-3-cyano-4-{4-[(3-methylpyrazin-2-yl)oxy]piperidin-1-yl}quinoline]	92	61.2	91.9	80.8	70.5	47	63.7	53.4	89.4	79.8	87.8	63.3
–	–	–	–	–	–	Cc1cc(Nc2nc3ccccc3c(N3CCC(NC(C)(C)C)CC3)c2C#N)ccc1Nc1ccnc(-c2cccnc2)n1 [Compound 522CN, 2-{3-methyl-4-[2-(pyridin-3-yl)pyrimidin-4-ylamino]phenylamino}-3-cyano-4-(4-tert-butylaminopiperidin-1-yl)quinoline]	0.3	0.3	0.3	0.3	0.3	0.2	0.4	0.4	0.2	0.2	0.3	0.2
